Data from patent publication US10543247B2, “Aloe preparation for skin enhancement” (Woodcliff Skincare Solutions, Inc., priority 2007, dated 2020).

What was measured:
scald hyperalgesia = conditions: compared with phenylbutazone; cited from earlier work
human TLR2 = biological target: T1, human TLR2 (Homo sapiens, UniProt O60603); test: TLR2 expression vector experiment: HEK 293 cells with NF-kappa B reporter and pDUO-hCD14/TLR2; type: cell-based; conditions: HEK 293 cells expressing TLR2 and CD14; 6 hours; FIG. 10B
T1 construct: host or cells: HEK 293 cells, transient transfection by electroporation
T1 sequence (O60603 21-784): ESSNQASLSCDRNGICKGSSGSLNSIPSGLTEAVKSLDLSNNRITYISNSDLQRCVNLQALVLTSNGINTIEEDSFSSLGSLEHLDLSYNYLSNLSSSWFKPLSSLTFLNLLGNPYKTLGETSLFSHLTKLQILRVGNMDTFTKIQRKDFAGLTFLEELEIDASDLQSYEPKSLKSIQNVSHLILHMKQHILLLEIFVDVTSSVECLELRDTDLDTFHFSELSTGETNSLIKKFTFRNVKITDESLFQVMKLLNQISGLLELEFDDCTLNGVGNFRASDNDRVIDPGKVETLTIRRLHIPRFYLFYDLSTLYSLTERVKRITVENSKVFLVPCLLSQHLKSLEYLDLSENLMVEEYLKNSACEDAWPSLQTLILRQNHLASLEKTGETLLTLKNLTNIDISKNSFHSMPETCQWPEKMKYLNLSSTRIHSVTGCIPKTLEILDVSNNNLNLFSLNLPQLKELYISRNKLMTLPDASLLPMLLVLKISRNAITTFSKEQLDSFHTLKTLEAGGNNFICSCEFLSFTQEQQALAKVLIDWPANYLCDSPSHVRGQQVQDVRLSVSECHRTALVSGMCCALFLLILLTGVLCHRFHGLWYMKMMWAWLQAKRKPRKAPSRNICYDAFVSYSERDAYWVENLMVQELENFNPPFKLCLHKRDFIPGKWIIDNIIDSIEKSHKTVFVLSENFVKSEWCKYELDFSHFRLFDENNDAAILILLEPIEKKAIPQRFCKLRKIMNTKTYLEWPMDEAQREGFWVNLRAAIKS
Experimental: HEK 293 cells were cultured in DMEM/F12 medium supplemented with fetal bovine serum (10%) and 1% penicillin-streptomycin at 37° C., under 5% CO2. Actively growing cells were transiently transfected with the appropriate plasmid(s) using electroporation (at 150 V and one 70-ms pulse). Following electroporation, cells were plated at a density of 5×10^4 cells in 200 μl/well of culture medium. After 48 hours, agents to be tested were added to transfected cells. Six hours after addition of samples, cells were harvested and luciferase activity measured. The NF-kappa B plasmid construct (pBIIXLUC) contained two copies of NF-kappa B motif from HIV/IgK. Plasmids co-expressing human CD14 and human TLR2 (pDUO-hCD14/TLR2) were purchased from InvivoGen. Zymosan was purchased from Sigma, Staphylococcus aureus peptidoglycan from Fluka and ultra pure Salmonella minnesota LPS from List Biological Laboratories, Inc.
FIGS. 10A-10B depict that AloeEx (batch 2-5-05) acts through TLR2. HEK 293 cells (cell line with minimal TLR expression) were transiently transfected with a luciferase reporter gene construct containing two binding sites for NF-kappa B, alone (FIG. 10A), or in combination with the pDUO-hCD14/TLR2 expression plasmid (FIG. 10B). […] Luciferase activity was determined 6 hours after addition of agents.

Substance	inhibitory effect on scald hyperalgesia (scald hyperalgesia)	activation of NF-kappa B (human TLR2)
O-acetylated-D-mannan [O-acetylated-D-mannan (T-2-HN)]	more marked inhibitory effect than phenylbutazone	–
peptidoglycan	–	also activated NF-kappa B
